Experimental data taken from US20120245137A1 (Zalicus Pharmaceuticals Ltd., priority 2009, published 2012).

Key:
Format in all cases: cell-based
[1] = target: human α1H T-type channels (Homo sapiens, UniProt O95180); test: T-type calcium channel block, whole cell patch clamp, α1H; conditions: HEK cells stably expressing human α1H; mainly non-inactivated protocol; values above 10,000 nM represented as 10000
Summary of the method: (§1)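 Read-out: current block in whole-cell patch clamp of HEK 293 cells stably expressing human α1G or α1H subunits. Compounds were perfused locally in external solution (0.1-0.01% DMSO) under resting and inactivating voltage protocols.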

[2] = target: N-type calcium channel subunits (α1B, α2δ, and β3a) (Homo sapiens, UniProt Q00975); test: Block of Cav2.2 channel, whole cell voltage clamp, manual and PatchXpress; conditions: Table 5; table follows Assay Example 3 (whole cell voltage clamp / PatchXpress); assay not given
Summary of the method: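 Percent block taken as current amplitude ratio with versus without compound, applied in rising doses; IC50 fitted where one cell received multiple doses. Protocol: 50 ms pulses to +20 mV at 0.067 Hz from […] or −90 mV holding; P/n leak subtraction, no junction-potential correction; manual and PatchXpress recordings.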

[3] = target: human α1G T-type channels (Homo sapiens, UniProt O43497); test: T-type calcium channel block, whole cell patch clamp, α1G; conditions: HEK cells stably expressing human α1G; mainly non-inactivated protocol; values above 10,000 nM represented as 10000
Summary of the method: as §1

Sequence of human α1H T-type channels (O95180 whole entry, the tested form may be a part): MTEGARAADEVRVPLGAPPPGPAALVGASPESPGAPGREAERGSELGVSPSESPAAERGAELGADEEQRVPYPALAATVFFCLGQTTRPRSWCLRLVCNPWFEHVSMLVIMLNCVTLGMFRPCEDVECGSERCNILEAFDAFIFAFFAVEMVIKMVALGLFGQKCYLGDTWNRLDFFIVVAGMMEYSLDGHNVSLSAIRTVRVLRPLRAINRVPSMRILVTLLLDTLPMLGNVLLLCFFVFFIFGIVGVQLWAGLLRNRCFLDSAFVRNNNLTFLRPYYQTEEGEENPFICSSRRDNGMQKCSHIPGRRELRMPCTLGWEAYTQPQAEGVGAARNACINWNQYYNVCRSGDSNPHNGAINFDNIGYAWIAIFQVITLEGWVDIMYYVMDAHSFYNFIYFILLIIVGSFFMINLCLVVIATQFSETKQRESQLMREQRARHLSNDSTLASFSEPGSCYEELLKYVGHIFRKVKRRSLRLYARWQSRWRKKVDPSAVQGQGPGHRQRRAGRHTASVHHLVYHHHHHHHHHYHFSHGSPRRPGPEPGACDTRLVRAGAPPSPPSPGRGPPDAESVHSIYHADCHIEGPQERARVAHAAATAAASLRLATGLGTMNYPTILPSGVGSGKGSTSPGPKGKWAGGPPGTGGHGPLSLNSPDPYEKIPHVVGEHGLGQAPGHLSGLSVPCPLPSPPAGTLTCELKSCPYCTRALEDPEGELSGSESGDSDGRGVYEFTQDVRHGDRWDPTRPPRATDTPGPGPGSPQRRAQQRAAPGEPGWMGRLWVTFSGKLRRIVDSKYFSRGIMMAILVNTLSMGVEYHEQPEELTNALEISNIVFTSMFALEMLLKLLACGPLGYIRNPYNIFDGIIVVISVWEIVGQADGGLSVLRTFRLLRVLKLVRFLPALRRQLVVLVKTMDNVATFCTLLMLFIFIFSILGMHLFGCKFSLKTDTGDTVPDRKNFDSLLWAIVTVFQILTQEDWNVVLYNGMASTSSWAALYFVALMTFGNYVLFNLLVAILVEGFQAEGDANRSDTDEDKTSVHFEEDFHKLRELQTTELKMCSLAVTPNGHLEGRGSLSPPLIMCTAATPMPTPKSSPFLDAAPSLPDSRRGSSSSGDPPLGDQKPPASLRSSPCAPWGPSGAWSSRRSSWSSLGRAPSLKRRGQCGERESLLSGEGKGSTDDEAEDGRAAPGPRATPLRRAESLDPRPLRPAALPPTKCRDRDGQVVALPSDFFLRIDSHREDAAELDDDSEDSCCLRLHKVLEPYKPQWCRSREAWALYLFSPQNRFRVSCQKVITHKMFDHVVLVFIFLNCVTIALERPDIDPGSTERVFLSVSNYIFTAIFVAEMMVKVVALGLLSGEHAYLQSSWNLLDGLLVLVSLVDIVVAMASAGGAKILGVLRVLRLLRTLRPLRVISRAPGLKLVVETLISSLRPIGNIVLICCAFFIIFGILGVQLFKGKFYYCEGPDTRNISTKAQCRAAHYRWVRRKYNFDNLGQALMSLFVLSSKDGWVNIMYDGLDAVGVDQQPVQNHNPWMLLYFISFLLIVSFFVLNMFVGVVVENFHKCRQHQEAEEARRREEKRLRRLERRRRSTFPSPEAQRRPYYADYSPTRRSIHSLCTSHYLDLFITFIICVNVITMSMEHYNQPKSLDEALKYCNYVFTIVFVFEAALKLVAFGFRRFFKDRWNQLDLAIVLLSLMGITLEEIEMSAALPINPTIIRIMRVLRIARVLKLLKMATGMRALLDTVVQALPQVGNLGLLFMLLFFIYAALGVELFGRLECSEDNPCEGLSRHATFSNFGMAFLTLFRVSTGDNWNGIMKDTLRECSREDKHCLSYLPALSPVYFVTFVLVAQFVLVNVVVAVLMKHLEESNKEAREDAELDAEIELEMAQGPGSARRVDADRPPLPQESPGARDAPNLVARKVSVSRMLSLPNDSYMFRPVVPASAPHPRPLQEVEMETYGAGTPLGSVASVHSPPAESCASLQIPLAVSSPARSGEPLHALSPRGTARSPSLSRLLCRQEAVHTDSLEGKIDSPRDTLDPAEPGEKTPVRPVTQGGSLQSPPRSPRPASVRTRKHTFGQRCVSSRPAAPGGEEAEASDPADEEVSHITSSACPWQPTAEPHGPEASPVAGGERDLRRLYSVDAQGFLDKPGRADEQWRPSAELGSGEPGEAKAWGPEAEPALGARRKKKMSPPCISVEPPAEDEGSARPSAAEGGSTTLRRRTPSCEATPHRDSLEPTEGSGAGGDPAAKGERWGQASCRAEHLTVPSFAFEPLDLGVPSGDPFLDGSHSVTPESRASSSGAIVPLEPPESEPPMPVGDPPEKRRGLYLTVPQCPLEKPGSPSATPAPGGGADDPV
Sequence of human α1G T-type channels (O43497 whole entry): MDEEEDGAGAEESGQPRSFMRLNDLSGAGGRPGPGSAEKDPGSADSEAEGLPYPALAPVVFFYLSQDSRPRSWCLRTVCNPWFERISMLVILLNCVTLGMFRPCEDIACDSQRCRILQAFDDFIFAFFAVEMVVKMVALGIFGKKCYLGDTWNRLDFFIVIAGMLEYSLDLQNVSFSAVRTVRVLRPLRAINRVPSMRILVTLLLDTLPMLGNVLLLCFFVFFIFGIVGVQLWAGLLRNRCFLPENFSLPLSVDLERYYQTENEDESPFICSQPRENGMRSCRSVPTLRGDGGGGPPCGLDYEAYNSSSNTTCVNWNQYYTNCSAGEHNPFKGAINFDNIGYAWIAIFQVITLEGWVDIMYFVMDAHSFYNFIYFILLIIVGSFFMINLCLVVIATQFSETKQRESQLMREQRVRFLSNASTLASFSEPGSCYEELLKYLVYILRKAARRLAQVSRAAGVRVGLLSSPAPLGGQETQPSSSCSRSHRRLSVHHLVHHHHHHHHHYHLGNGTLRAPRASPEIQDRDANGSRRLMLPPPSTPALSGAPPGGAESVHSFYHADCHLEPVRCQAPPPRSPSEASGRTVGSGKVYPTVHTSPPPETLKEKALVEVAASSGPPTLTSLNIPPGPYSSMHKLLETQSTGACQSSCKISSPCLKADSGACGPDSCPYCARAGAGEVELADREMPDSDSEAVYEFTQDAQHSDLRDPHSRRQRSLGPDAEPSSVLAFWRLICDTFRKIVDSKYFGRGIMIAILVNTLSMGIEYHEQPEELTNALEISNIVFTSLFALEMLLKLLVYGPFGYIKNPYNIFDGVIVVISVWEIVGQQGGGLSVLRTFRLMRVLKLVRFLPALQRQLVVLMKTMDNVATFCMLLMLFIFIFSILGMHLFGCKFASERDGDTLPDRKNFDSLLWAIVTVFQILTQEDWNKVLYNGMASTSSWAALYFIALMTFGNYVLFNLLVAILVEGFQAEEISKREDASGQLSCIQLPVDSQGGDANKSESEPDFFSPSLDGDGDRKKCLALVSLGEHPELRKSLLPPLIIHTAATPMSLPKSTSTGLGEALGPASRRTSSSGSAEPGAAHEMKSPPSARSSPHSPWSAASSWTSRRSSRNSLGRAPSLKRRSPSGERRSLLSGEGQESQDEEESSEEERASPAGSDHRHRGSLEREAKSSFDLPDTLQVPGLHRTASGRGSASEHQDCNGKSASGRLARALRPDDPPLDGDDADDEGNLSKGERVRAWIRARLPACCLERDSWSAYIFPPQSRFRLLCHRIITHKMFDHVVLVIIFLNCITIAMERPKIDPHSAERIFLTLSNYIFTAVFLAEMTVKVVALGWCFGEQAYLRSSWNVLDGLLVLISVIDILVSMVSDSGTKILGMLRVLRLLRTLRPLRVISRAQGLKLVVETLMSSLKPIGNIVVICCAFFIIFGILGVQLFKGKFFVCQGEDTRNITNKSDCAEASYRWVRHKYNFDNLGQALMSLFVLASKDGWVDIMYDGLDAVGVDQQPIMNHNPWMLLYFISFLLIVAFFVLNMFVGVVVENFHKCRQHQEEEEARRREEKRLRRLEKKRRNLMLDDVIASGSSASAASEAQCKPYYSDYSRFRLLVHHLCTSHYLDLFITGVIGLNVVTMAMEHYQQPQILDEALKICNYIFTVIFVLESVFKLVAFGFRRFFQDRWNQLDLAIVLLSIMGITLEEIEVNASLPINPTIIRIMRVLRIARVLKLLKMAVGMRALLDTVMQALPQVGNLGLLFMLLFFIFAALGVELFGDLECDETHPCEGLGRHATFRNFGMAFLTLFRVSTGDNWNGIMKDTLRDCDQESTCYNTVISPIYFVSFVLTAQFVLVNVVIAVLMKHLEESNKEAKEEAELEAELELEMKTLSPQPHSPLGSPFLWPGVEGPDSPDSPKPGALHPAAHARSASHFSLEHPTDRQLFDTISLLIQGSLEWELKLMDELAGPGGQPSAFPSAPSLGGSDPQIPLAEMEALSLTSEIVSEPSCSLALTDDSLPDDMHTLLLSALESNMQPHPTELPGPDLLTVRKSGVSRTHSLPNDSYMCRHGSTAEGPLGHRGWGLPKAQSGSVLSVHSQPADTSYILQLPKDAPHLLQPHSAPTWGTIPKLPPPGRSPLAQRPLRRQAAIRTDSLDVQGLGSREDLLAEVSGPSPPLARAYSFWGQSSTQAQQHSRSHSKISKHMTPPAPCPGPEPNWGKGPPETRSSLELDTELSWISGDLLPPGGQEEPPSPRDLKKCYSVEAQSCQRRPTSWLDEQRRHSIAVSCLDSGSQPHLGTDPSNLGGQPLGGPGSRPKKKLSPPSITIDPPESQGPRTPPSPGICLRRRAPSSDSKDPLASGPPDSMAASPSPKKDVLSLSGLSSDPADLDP

Row | Compound | IC50 [1] [nM] | IC50 [2] [nM] | IC50 [3] [nM]
1 | 4-fluoro-3-(trifluoromethyl)-N- ((1S,4S)-4-((3- (trifluoromethyl)phenylsulfonyl) methyl)cyclohexyl)benzamide [Compound 138] | 2840 | 420 | 9880
2 | 4-fluoro-N-(4-methyl-4-(3- (trifluoromethyl)phenylsulfonyl) cyclohexyl)-3-(trifluoromethyl) benzamide [Compound 4] | 6740 | 140 | 8540
3 | 5-(trifluoromethyl)-N-((1R,4R)-4- ((3- (trifluoromethyl)phenylsulfonyl) methyl)cyclohexyl)picolinamide [Compound 104] | > 10000 | 840 | > 10000
4 | CC1(S(=O)(=O)c2cccc(C(F)(F)F)c2)CCC(NC(=O)c2ccc(C(F)(F)F)nc2)CC1 (stereo not drawn) [Compound 1, N-(4-methyl-4-(3-(trifluoromethyl)phenylsulfonyl)cyclohexyl)-6-(trifluoromethyl) nicotinamide] | 7400 | 1030 | > 10000
5 | Cn1nc(C(F)(F)F)cc1C(=O)NC1CCC(C)(S(=O)(=O)c2cccc(C(F)(F)F)c2)CC1 (stereo not drawn) [Compound 6, 1-methyl-N-(4-methyl-4-(3-(trifluoromethyl)phenylsulfonyl)cyclohexyl)-3-(trifluoromethyl)-1H-pyrazole-5-carboxamide] | > 10000 | 330 | > 10000
6 | CC1(S(=O)(=O)c2cccc(C(F)(F)F)c2)CCC(NC(=O)c2ccn(CC(F)(F)F)n2)CC1 (stereo not drawn) [Compound 7, N-(4-methyl-4-(3-(trifluoromethyl)phenylsulfonyl)cyclohexyl)-l-(2,2,2-trifluoroethyl)-1H-pyrazole-3-carboxamide] | > 10000 | 1580 | > 10000
7 | O=C(NC1CCC(S(=O)(=O)c2cccc(C(F)(F)F)c2)CC1)c1ccc(C(F)(F)F)nc1 (stereo not drawn) [Compound 8, 6-(trifluoromethyl)-N-(4-(3-(trifluoromethyl)phenylsulfonyl)cyclohexyl)nicotinamide] | 6710 | 2300 | > 10000
8 | O=C(NC1CCC(S(=O)(=O)c2cccc(C(F)(F)F)c2)CC1)c1ccc(C(F)(F)F)cn1 (stereo not drawn) [Compound 10, 5-(trifluoromethyl)-N-(4-(3-(trifluoromethyl)phenylsulfonyl)cyclohexyl)picolinamide] | 3820 | 1460 | 4200
9 | O=C(NC1CCC(S(=O)(=O)c2cccc(C(F)(F)F)c2)CC1)c1ccc(F)c(C(F)(F)F)c1 (stereo not drawn) [Compound 11, 4-fluoro-3-(trifluoromethyl)-N-(4-(3-(trifluoromethyl)phenylsulfonyl)cyclohexyl)benzamide] | > 10000 | 150 | > 10000
10 | Cn1nc(C(F)(F)F)cc1C(=O)NC1CCC(S(=O)(=O)c2cccc(C(F)(F)F)c2)CC1 (stereo not drawn) [Compound 13, 1-methyl-3-(trifluoromethyl)-N-(4-(3-(trifluoromethyl)phenylsulfonyl)cyclohexyl)-1H-pyrazole-5-carboxamide] | > 10000 | 690 | > 10000
11 | CC(C)(C)NC(=O)CNC1CCC(C)(S(=O)(=O)c2cccc(C(F)(F)F)c2)CC1 (stereo not drawn) [Compound 15, N-tert-butyl-2-(4-methyl-4-(3-(trifluoromethyl)phenylsulfonyl)cyclohexylamino)acetamide] | 4620 | 50 | > 10000
12 | CC(C)(C)NC(=O)CNC1CCC(S(=O)(=O)c2cccc(C(F)(F)F)c2)CC1 (stereo not drawn) [Compound 16, N-tert-butyl-2-(4-(3-(trifluoromethyl)phenylsulfonyl)cyclohexylamino)acetamide] | 9180 | 140 | > 10000
13 | CC1(S(=O)(=O)c2cccc(C(F)(F)F)c2)CCC(NC(=O)c2cc(F)cc(Cl)c2)CC1 (stereo not drawn) [Compound 19, 3-chloro-5-fluoro-N-(4-methyl-4-(3-(trifluoromethyl)phenylsulfonyl)cyclohexyl)benzamide] | 3020 | 60 | 5240
14 | CC1(S(=O)(=O)c2cccc(C(F)(F)F)c2)CCC(NC(=O)c2cc(C(F)(F)F)ccn2)CC1 (stereo not drawn) [Compound 21, N-(4-methyl-4-(3-(trifluoromethyl)phenylsulfonyl)cyclohexyl)-4-(trifluoromethyl)picolinamide] | 4020 | 200 | 6560
15 | COc1cc(F)cc(C(=O)NC2CCC(S(=O)(=O)c3cccc(C(F)(F)F)c3)CC2)c1 (stereo not drawn) [Compound 25, 3-fluoro-5-methoxy-N-(4-(3-(trifluoromethyl)phenylsulfonyl)cyclohexyl)benzamide] | 4660 | 360 | 2790
16 | O=C(NC1CCC(S(=O)(=O)c2cccc(C(F)(F)F)c2)CC1)c1cc(F)cc(Cl)c1 (stereo not drawn) [Compound 26, 3-chloro-5-fluoro-N-(4-(3-(trifluoromethyl)phenylsulfonyl)cyclohexyl)benzamide] | > 10000 | 210 | 2790

Now those with a lower IC50 [1], led by results:

Row | IC50 [1] [nM] | IC50 [2] [nM] | IC50 [3] [nM] | Compound
17 | 1170 | 950 | 1380 | CC1(S(=O)(=O)c2cccc(C(F)(F)F)c2)CCC(NC(=O)c2cnc(C(F)(F)F)nc2)CC1 (stereo not drawn) [Compound 2, N-(4-methyl-4-(3-(trifluoromethyl)phenylsulfonyl)cyclohexyl)-2-(trifluoromethyl) pyrimidine-5-carboxamide]
18 | 1030 | 2520 | 1130 | O=C(NC1CCC(S(=O)(=O)c2cccc(C(F)(F)F)c2)CC1)c1cnc(C(F)(F)F)nc1 (stereo not drawn) [Compound 9, 2-(trifluoromethyl)-N-(4-(3-(trifluoromethyl)phenylsulfonyl)cyclohexyl)pyrimidine-5-carboxamide]
19 | 330 | 2210 | 1320 | O=C(NC1CCC(S(=O)(=O)c2cccc(C(F)(F)F)c2)CC1)c1ccn(CC(F)(F)F)n1 (stereo not drawn) [Compound 14, 1-(2,2,2-trifluoroethyl)-N-(4-(3-(trifluoromethyl)phenylsulfonyl)cyclohexyl)-1H-pyrazole-3-carboxamide]
20 | 1420 | 260 | 2330 | CC1(S(=O)(=O)c2cccc(C(F)(F)F)c2)CCC(NC(=O)CNC2CCCCC2)CC1 (stereo not drawn) [Compound 17, 2-(cyclohexylamino)-N-(4-methyl-4-(3-(trifluoromethyl)phenylsulfonyl)cyclohexyl)acetamide]
21 | 2720 | 390 | 3060 | CC1(S(=O)(=O)c2cccc(C(F)(F)F)c2)CCN(C(=O)CNC2CCCCC2)CC1 [Compound 18, 2-(cyclohexylamino)-l-(4-methyl-4-(3-(trifluoromethyl)phenylsulfonyl)piperidin-l-yl)ethanone]
22 | 1380 | 70 | 1970 | COc1cc(F)cc(C(=O)NC2CCC(C)(S(=O)(=O)c3cccc(C(F)(F)F)c3)CC2)c1 (stereo not drawn) [Compound 20, 3-fluoro-5-methoxy-N-(4-methyl-4-(3-(trifluoromethyl)phenylsulfonyl)cyclohexyl)benzamide]
23 | 1190 | 240 | 2790 | CN(C(=O)CNC1CCC(S(=O)(=O)c2cccc(C(F)(F)F)c2)CC1)C(C)(C)C (stereo not drawn) [Compound 23, N-tert-butyl-N-methyl-2-(4-(3-(trifluoromethyl)phenylsulfonyl)cyclohexylamino)acetamide]
